Patent US8188059B2, “Compounds and methods for modulating expression of GCGR” (Isis Pharmaceuticals, Inc., priority 2006, dated 2012)
Strand notation (5' to 3'): a small letter for the sugar, then the base; units joined by * are phosphorothioate-linked, units joined directly phosphodiester-linked; [ ] holds rarer units or linkages, { } end groups; capitals alone tell only the bases. e = 2'-O-(2-methoxyethyl) (MOE); [5mC] = 5-methylcytosine; d = 2'-deoxy (DNA)

Columns and labels:
GCGR mRNA = GCGR mRNA levels in liver and estimated ED50, C57/BL6 mice, single i.p. dose (Example 5, Tables 44, 45); format: in vivo, mouse
Protocol: Eight-week old male C57/BL6 mice (Jackson Laboratory, Bar Harbor, Me.) were administered a single dose of GCGR antisense compound by intraperitonel (i.p.) injection at a concentration of 10, 3.2, 1, and 0.32 μmol·kg. Each dose group consisted of four animals. Shown in Table 43 are the sequences, motifs and conjugates of the GCGR antisense compounds used in this study. Bolded residues indicate 2′-O-methoxyethyl (2′-MOE) modifications and the italicized residues indicate methyleneoxy (4′-CH2—O-2′) BNA modifications. All antisense compounds comprise phosphorothioate internucleoside linkages throughout and each cytosine is replaced with 5-methylcytosine. GCGR antisense compounds target published GCGR nucleic acids, including Genbank Accession No. BC031885.1 (SEQ ID NO: 7).
To determine whether the phenotypic changes shown above correlated with a decrease in GCGR mRNA, treated animals were evaluated for levels of target mRNA in liver by RT, real time PCR according to methods described herein. Table 44 show results from direct comparisons of the antisense compounds targeting GCGR nucleic acid for their effect on target expression. Results are expressed as percent of saline control.

mouse SGLT2 mRNA [1] = assay: Mouse SGLT2 mRNA levels in kidney, additional 1-10-1 and 2-8-2 MOE gapmers, Balb/c mice (Example 15, Table 68); format: in vivo
Protocol: 1-10-1 and 2-8-2 MOE gapmer short antisense compounds were designed to target different regions of the mouse SGLT2 RNA but have complementarity across species. […] All cytidine residues are 5-methylcytidines.
The short antisense compounds were analyzed for their effect on mouse SGLT2 mRNA levels in vivo. Data was taken from three experiments in which male 6-week old Balb/c mice were dosed twice per week for three weeks with 0.5, 0.1, or 0.02 umol/kg of either a 1-10-1 or 2-8-2 MOE gapmer given by intraperitoneal injection. Mice were sacrificed 48 hours following last administration and evaluated for SGLT2 levels in kidney. Target levels were determined by RT, real-time PCR as described by other examples herein. PCR results were normalized to an internal ISIS control.

mouse SGLT2 mRNA [2] = assay: Mouse SGLT2 mRNA levels in kidney, 1-10-1 MOE gapmers, Balb/c mice (Example 14, Table 65); format: in vivo
Protocol: The short antisense compounds were analyzed for their effect on mouse SGLT2 mRNA levels. Data was taken from three experiments in which Male 6-week old Balb/c mice were dosed twice per week for two weeks with 450, 150, or 50 nmol/kg of one of the above 1-10-1 MOE gapmers given by intraperitoneal injection. Mice were sacrificed 48 hours following last administration and evaluated for SGLT2 mRNA levels in kidney. Target levels were determined by RT, real-time PCR as described by other examples herein. PCR results were normalized to an internal ISIS control.

rat SGLT2 mRNA = assay: Rat SGLT2 mRNA levels in kidney, 1-10-1 gapmers at 250 nmol/kg, Sprague-Dawley rats (Example 14, Table 66); format: in vivo; conditions: for % change in SGLT2 expression relative to saline: 250 nmol/kg i.p. twice per week for three weeks, Sprague-Dawley rats, kidney
Protocol: The effect of the above 1-10-1gapmers (see Table 64 above) on rat SGLT2 mRNA levels. Data are taken from four experiments in which male Sprague-Dawley rats (170-200 g) were dosed twice per week for three weeks with 250 nmol/kg given by intraperitoneal injection. Rats were sacrificed 48 hours following last administration and evaluated for SGLT2 mRNA levels in kidney. Target levels were determined by RT, real-time PCR as described by other examples herein. PCR results were normalized to an internal ISIS control.

Q: With “396145 (antisense eA*eT*eG*eG*e[5mC]*dT*dT*d[5mC]*dT*d[5mC]*d[5mC]*dA*dT*d[5mC]*dA*eT*eA*eT*e[5mC]*e[5mC]) [compound 396145]” as the substance, how does the “GCGR mRNA levels in liver” value (GCGR mRNA; 3.2 μmol/kg single i.p.) read?
A: Its value is 33% of saline control.

Q: What about the “GCGR mRNA levels in liver” value (GCGR mRNA; 10 μmol/kg single i.p.) of the same substance?
A: Its value is 8% of saline control.

Q: How did the “GCGR mRNA levels in liver” value (GCGR mRNA; 3.2 μmol/kg single i.p.) turn out when “396147 (antisense e[5mC]*eT*eT*eG*eG*dG*d[5mC]*dA*dT*dG*d[5mC]*dT*d[5mC]*dG*dT*e[5mC]*eA*eG*eT*e[5mC]) [compound 396147]” was run?
A: Its value is 68% of saline control.

Q: What about the “GCGR mRNA levels in liver” value (GCGR mRNA; 10 μmol/kg single i.p.) of the same substance?
A: The value was 28% of saline control.

Q: Which “% change in SGLT2 expression relative to saline” value (mouse SGLT2 mRNA [1]; 0.02 umol/kg i.p. twice per week for three weeks) does the source give for “ISIS 379702: targeted to SGLT2 (antisense eG*d[5mC]*dA*d[5mC]*dA*d[5mC]*dA*dG*d[5mC]*dT*dG*e[5mC])” here?
A: Its value is −40%.

Q: And the “% change in SGLT2 expression relative to saline” value (mouse SGLT2 mRNA [1]; 0.1 umol/kg i.p. twice per week for three weeks)?
A: The value was −65%.

Q: And the “% change in SGLT2 expression relative to saline” value (mouse SGLT2 mRNA [1]; 0.5 umol/kg i.p. twice per week for three weeks)?
A: The value was −70%.

Q: And the “% change in SGLT2 expression relative to saline” value (mouse SGLT2 mRNA [2]; 50 nmol/kg i.p. twice per week for two weeks)?
A: The value was −52.5%.

Q: And the “% change in SGLT2 expression relative to saline” value (mouse SGLT2 mRNA [2]; 150 nmol/kg i.p. twice per week for two weeks)?
A: The value was −72.5%.

Q: What about the “% change in SGLT2 expression relative to saline” value (mouse SGLT2 mRNA [2]; 450 nmol/kg i.p. twice per week for two weeks) of the same substance?
A: Its value is −75%.

Q: And the “% change in SGLT2 expression relative to saline” value (rat SGLT2 mRNA)?
A: Its value is −25%.

Q: Which results are given for “ISIS 381408: SGLT2; 1-10-1 MOE gapmer (antisense TACCGAACACCT; sugars from the 5' end e1 d10 e1, backbone and methylation of C not given here)”?
A: % change in SGLT2 expression relative to saline (rat SGLT2 mRNA): −5%; expression of SGLT2 in vivo (rat SGLT2 mRNA; rat kidney, 250 nmol/kg twice per week for three weeks): Activity of ISIS 381408 has been shown
